Laboratory results as given in patent publication US4452784A, “C-23-Modified derivatives of DMT” (Eli Lilly and Company, priority 1982, dated 1984).
In brackets after ≈: the same amount, converted by molar mass. Like-named read-outs stand apart in the source and are kept apart here.

Assays:
Mycoplasma gallisepticum [1] = assay: Antimycoplasmal activity of DMT derivatives in chicks; type: in vivo; details: for Number with Antibodies/Number Tested: antibodies to M. gallisepticum
Method: In these tests infections were induced in chicks by injecting 0.2 ml. of a broth culture of M. gallisepticum into the abdominal air sac of two- to three-day-old chicks. The compounds were administered subcutaneously at a dose of 60 mg/kg once only on the day of infection or, at the same level, two times on the day of infection and two times on the first day post-infection. Twenty-one days post-infection, the chicks were weighed, a blood sample was taken, and the chicks were sacrificed. The presence or absence of air-sac lesions was recorded.

[2] = tested on: Haemophilus influenzae R52; assay: Antibiotic activity, standard agar-dilution assay (MIC); type: cell-based; details: H. influenzae R52, ampicillin-resistant strain
Method: (§1) The MIC's in Table III were determined by standard agar-dilution assays. The MIC's in Table IV were obtained using a conventional broth-dilution microtiter test.
(§2) Antibiotic Activity of C-23 Modified Derivatives of DMT^a

Streptococcus Group 9960 = assay: as above; type: cell-based; details: GROUP9960
Method: as §1, §2

[3] = tested on: Staphylococcus epidermidis EPI1; assay: as above; type: cell-based; details: S. epidermidis EPI1
Method: as §1, §2

[4] = tested on: Streptococcus Group D X66; assay: as above; type: cell-based; details: agar dilution; Streptococcus Group D X66; read-out: MIC
Method: as §1, §2

[5] = tested on: Staphylococcus epidermidis EPI2; assay: as above; type: cell-based; details: S. epidermidis EPI2
Method: as §1, §2

[6] = tested on: Staphylococcus aureus X1.1; assay: as above; type: cell-based; details: S. aureus X1.1
Method: as §1, §2

[7] = tested on: Staphylococcus aureus S13E; assay: as above; type: cell-based
Method: as §1, §2

[8] = tested on: Haemophilus influenzae Holt; assay: as above; type: cell-based; details: H. influenzae Holt, ampicillin-sensitive strain
Method: as §1, §2

[9] = tested on: Streptococcus pneumoniae Park I; assay: as above; type: cell-based; details: S. pneumoniae Park I
Method: as §1, §2

[10] = tested on: Streptococcus pyogenes C203; assay: as above; type: cell-based; details: S. pyogenes C203
Method: as §1, §2

[11] = tested on: Staphylococcus aureus X400; assay: as above; type: cell-based
Method: as §1, §2

[12] = tested on: Staphylococcus aureus V41; assay: as above; type: cell-based
Method: as §1, §2

[13] = tested on: Pasteurella multocida 17E; assay: Antibiotic activity, broth-dilution microtiter test (MIC); type: cell-based; details: P. multocida 17E, bovine isolate
Method: as §1
(§3) Antibiotic Activity of DMT Derivatives^a

[14] = tested on: Pasteurella multocida 60A; assay: as above; type: cell-based; details: P. multocida 60A, avian isolate
Method: as §1, §3

[15] = tested on: Pasteurella multocida 40G; assay: as above; type: cell-based; details: P. multocida 40G
Method: as §1, §3

[16] = tested on: Pasteurella hemolytica 41D; assay: as above; type: cell-based; details: P. hemolytica 41D
Method: as §1, §3

Mycoplasma synoviae = assay: as above; type: cell-based; details: Mycoplasmopsis synoviae, M. synoviae
Method: as §1, §3

[17] = tested on: Pasteurella hemolytica 22C; assay: as above; type: cell-based; details: broth-dilution microtiter, P. hemolytica 22C, read-out: MIC
Method: as §1, §3

[18] = tested on: Pasteurella multocida 68C; assay: as above; type: cell-based; details: P. multocida 68C
Method: as §1, §3

[19] = tested on: Pasteurella multocida 22A; assay: as above; type: cell-based; details: P. multocida 22A
Method: as §1, §3

Streptococcus bovis 80 = assay: as above; type: cell-based; details: S. bovis 80
Method: as §1, §3

Mycoplasma gallisepticum [20] = assay: as above; type: cell-based; details: Mycoplasmoides gallisepticum, M. gallisepticum
Method: as §1, §3

[21] = tested on: Pasteurella hemolytica 23C; assay: as above; type: cell-based; details: P. hemolytica 23C
Method: as §1, §3

Mycoplasma hyorhinis = assay: as above; type: cell-based; details: broth-dilution microtiter; M. hyorhinis; read-out: MIC
Method: as §1, §3

Staphylococcus aureus = assay: as above; type: cell-based; details: S. aureus
Method: as §1, §3

[22] = tested on: Streptococcus pyogenes C203; assay: ED50 in mice experimentally infected with S. pyogenes C203; type: in vivo; details: doses given 1 and 4 hours postinfection
Method: The C-23 modified derivatives of DMT of this invention have shown in vivo antimicrobial activity against experimentally-induced infections in laboratory animals. When two doses of test compound were administered to mice experimentally infected with S. pyogenes C203, the activity observed was measured as an ED50 value [effective dose in mg/kg to protect 50% of the test animals: see Warren Wick, et al., J. Bacteriol. 81, 233-235 (1961)].
^a mg/kg × 2; doses given 1 and 4 hours postinfection

[23] = subcutaneous 60 mg/kg × 1, 21 days post-infection
[24] = subcutaneous 60 mg/kg × 4, 21 days post-infection

What does the source list for CCC1OC(=O)CC(O)C(C)C(OC2OC(C)C(OC3CC(C)(O)C(O)C(C)O3)C(N(C)C)C2O)C(CC=O)CC(C)C(=O)C=CC(C)=CC1CNC(=O)Cc1ccccc1 (centres unmarked) [Compound 3, 23-Deoxy-23-(phenylacetyl)amino-DMT]?
Number with Antibodies/Number Tested (Mycoplasma gallisepticum [1]; [23]): 8/9; Number with Antibodies/Number Tested (Mycoplasma gallisepticum [1]; [24]): 3/10; Mortality (Mycoplasma gallisepticum [1]; [23]): 1/10; Number with Air-Sac Lesions/Number Treated (Mycoplasma gallisepticum [1]; [23]): 8/10; Mortality (Mycoplasma gallisepticum [1]; [24]): 0/10; Number with Air-Sac Lesions/Number Treated (Mycoplasma gallisepticum [1]; [24]): 0/10; MIC [2]: 8 µg/mL (≈ 9.31 µM); MIC (Streptococcus Group 9960): 0.5 µg/mL (≈ 0.582 µM); MIC [3]: 0.5 µg/mL (≈ 0.582 µM); MIC [4]: 0.5 µg/mL (≈ 0.582 µM); MIC [5]: 1 µg/mL (≈ 1.16 µM); MIC [6]: 0.5 µg/mL (≈ 0.582 µM); MIC [7]: 0.5 µg/mL (≈ 0.582 µM); MIC [8]: 8 µg/mL (≈ 9.31 µM); MIC [9]: 0.25 µg/mL (≈ 0.291 µM); MIC [10]: 0.25 µg/mL (≈ 0.291 µM); MIC ([11]; X400): 1 µg/mL (≈ 1.16 µM); MIC ([12]; V41): 1 µg/mL (≈ 1.16 µM); MIC [13]: 12.5 µg/mL (≈ 14.6 µM); MIC [14]: 25 µg/mL (≈ 29.1 µM); MIC [15]: 25 µg/mL (≈ 29.1 µM); MIC [16]: 25 µg/mL (≈ 29.1 µM); MIC (Mycoplasma synoviae): 0.39 µg/mL (≈ 0.454 µM); MIC [17]: 50 µg/mL (≈ 58.2 µM); MIC [18]: 25 µg/mL (≈ 29.1 µM); MIC [19]: 50 µg/mL (≈ 58.2 µM); MIC (Streptococcus bovis 80): 0.19 µg/mL (≈ 0.221 µM); MIC (Mycoplasma gallisepticum [20]): 0.09 µg/mL (≈ 0.105 µM); MIC [21]: 25 µg/mL (≈ 29.1 µM); MIC (Mycoplasma hyorhinis): 1.56 µg/mL (≈ 1.82 µM); MIC (Staphylococcus aureus): 1.56 µg/mL (≈ 1.82 µM); ED50 ([22]; C203, oral): > 100 mg/kg; ED50 ([22]; C203, sc, subcutaneous): 3.8 mg/kg

Which results are given for CCC1OC(=O)CC(O)C(C)C(OC2OC(C)C(OC3CC(C)(O)C(O)C(C)O3)C(N(C)C)C2O)C(CC=O)CC(C)C(=O)C=CC(C)=CC1CSc1ccccc1 (centres unmarked) [Compound 4, 23-Deoxy-23-(phenyl)thio-DMT]?
Number with Antibodies/Number Tested (Mycoplasma gallisepticum [1]; [23]): 8/10; Number with Antibodies/Number Tested (Mycoplasma gallisepticum [1]; [24]): 7/10; Mortality (Mycoplasma gallisepticum [1]; [23]): 0/10; Number with Air-Sac Lesions/Number Treated (Mycoplasma gallisepticum [1]; [23]): 7/10; Mortality (Mycoplasma gallisepticum [1]; [24]): 0/10; Number with Air-Sac Lesions/Number Treated (Mycoplasma gallisepticum [1]; [24]): 3/10; MIC (Streptococcus Group 9960): 0.125 µg/mL (≈ 0.15 µM); MIC [3]: 0.5 µg/mL (≈ 0.599 µM); MIC [4]: 0.25 µg/mL (≈ 0.3 µM); MIC [5]: 0.5 µg/mL (≈ 0.599 µM); MIC [6]: 0.5 µg/mL (≈ 0.599 µM); MIC [7]: 0.5 µg/mL (≈ 0.599 µM); MIC [8]: 4 µg/mL (≈ 4.8 µM); MIC [9]: 0.03 µg/mL (≈ 0.036 µM); MIC [10]: 0.125 µg/mL (≈ 0.15 µM); MIC ([11]; agar dilution, S. aureus X400, methicillin-resistant strain, read-out: MIC): 0.5 µg/mL (≈ 0.599 µM); MIC ([12]; agar dilution, S. aureus V41, penicillin-resistant strain, read-out: MIC): 0.25 µg/mL (≈ 0.3 µM); MIC [13]: 6.25 µg/mL (≈ 7.49 µM); MIC [14]: 6.25 µg/mL (≈ 7.49 µM); MIC [15]: 6.25 µg/mL (≈ 7.49 µM); MIC [16]: 12.5 µg/mL (≈ 15 µM); MIC (Mycoplasma synoviae): 0.19 µg/mL (≈ 0.228 µM); MIC [17]: 25 µg/mL (≈ 30 µM); MIC [18]: 12.5 µg/mL (≈ 15 µM); MIC [19]: 12.5 µg/mL (≈ 15 µM); MIC (Streptococcus bovis 80): 0.19 µg/mL (≈ 0.228 µM); MIC (Mycoplasma gallisepticum [20]): ≤ 0.05 µg/mL; MIC [21]: 25 µg/mL (≈ 30 µM); MIC (Mycoplasma hyorhinis): 0.78 µg/mL (≈ 0.935 µM); MIC (Staphylococcus aureus): 0.39 µg/mL (≈ 0.468 µM); ED50 ([22]; C203, oral): 71 mg/kg; ED50 ([22]; C203, sc, subcutaneous): < 25 mg/kg
